Values quoted from earlier work as cited in patent publication US8461106B2, “Biofilm prevention using lactoferrin” (The Trustees of the University of Pennsylvania, priority 2007, dated 2013).

Test system: pseudomonas biofilms

Q: With gentamicin as the substance, how does the “MBEC for pseudomonas biofilms relative to MIC for planktonic pseudomonas” value read?
A: 60 fold
